Data on 1 molecule can be found in patent US8937065B2, “Compositions and methods for modulating a kinase” (Clevexel Pharma, priority 2011, dated 2015).

The structures appear in SMILES notation.

One series concerns Caco-2. Description: Caco-2 permeability and efflux. It counts as in vitro ADME. On the technique in general: Caco-2 monolayers are a common model of the intestinal barrier.
Another series deals with CYP. Description: CYP inhibition. The series is classed as in vitro ADME.
The next series concerns NALM-6 cells. Description: Proliferation of NALM-6 cells (cell proliferation index, flow cytometry). To be noted: Homo sapiens, B cells, outcome-based, read-out: IC50 Proliferation NALM-6 cells (ALL). The method, then: Cell proliferation of the human B cell precursor leukemia tumor cell line NALM-6 was measured by a cell proliferation index assay. This assay was based on the dilution rate of a fluorescent membrane marker which is directly linked to the cell division. Briefly, the assay was performed by loading the cells with a non-toxic fluorescent phospholipid analog before the seeding. The probe inserts stably into the plasmic membrane and was distributed between daughter cells after division. Flow cytometry analysis of the fluorescent probe was performed directly after the loading of the cells and after 96 hours of culture. The dilution rate of the fluorescent probe at the single cell level was directly correlated to the number of cell divisions. All experiments were performed in triplicate.
Detection of cellular events was performed in triplicate in 96 well-plates after 72 hours of treatment by automated flow cytometry. Non-linear regressions were performed with GraphPad Prism 4.01 software.
Cells were previously thawed and amplified in standard culture conditions (37° C., 5% CO2). NALM-6 cells were cultivated in RPMI 1640+10% inactivated Fetal Bovine Serum. […]
Day 4: After 72 hours of treatment, the cells were analyzed by automated flow cytometry.
A general note: A flow cytometer gives signals particle by particle.

Series [1] deals with NF-kB pathway, Ramos cells. Description: NFkB/Ramos reporter assay. The settings on record: Homo sapiens, read-out: IC50 Cell-based selectivity: NF-kB pathway Ramos cells. On the procedure: Cells were plated on the day prior to the assay. Media required included:
• 1. Cells were harvest from culture in Growth Medium and resuspend in Assay Medium at a density of 1.6×10^6 cells/ml. • 2. 32 μl per well of Assay medium were added to the cell-free control wells. 32 μl per well of a cell suspension were added to Unstimulated and Stimulated wells • 3. After plating, the plates were incubated in a 37° C./5% CO2 incubator for 16-20 hours. Preparation of DMSO Solution:
A solution was prepared of 5% DMSO solution (10×) in Assay Media.
A solution was prepared of 10×TNFα solution in Assay Medium. It is recommended to run a dose response curve to determine the EC80 for the Stimulation Solution.
• 1. 4 μl of 10×DMSO solution was added to each well. • 2. 4 μl of Assay Medium was added to the Unstimulated wells and to the Cell-Free wells. • 3. 4 μl of the 10×TNFα was added to the Stimulated wells. • 4. The assay plate was incubated in a humidified 37° C./5% CO2 incubator for 5 hours. Substrate Loading and Incubation
This protocol is designed for loading cells with LiveBLAzer™-FRET B/G Substrate (CCF4-AM) or CCF2-AM. If alternative substrates are used it is recommended to follow the loading protocol provided with the substrate. […]
Added 934 μl Solution C to the combined solutions from above step and vortexed. • 3. […] The cells were counted and then spun cells down and resuspended in 4° C. […]

With `O=C(CN1CCOCC1)Nc1cccc(-c2nc(-c3c[nH]c(C(=O)N4CCCC4)c3)cs2)c1` [7A, 2-morpholino-N-(3-(4-(5-(pyrrolidine-1-carbonyl)-1H-pyrrol-3-yl)thiazol-2-yl)phenyl)acetamide], the “Caco-2 Eflux” value with Caco-2 (Caco-2) is given as “no”. Further, the “Caco-2 Papp A-B (×10^6/cm · s^−1)” value in the series on Caco-2 (Caco-2, A-B) is listed as 24 ×10^6/cm · s^−1. In the series with CYP, this molecule showed a CYP inhibition greater than 10. For the same molecule, the results for the IC50 (with NALM-6 cells; in series [1]) were 480 nM and greater than 100000 nM, respectively.
